Where no end group is shown, it is not given here.
Legend:
DU145 cells [1] = assay: Cell growth of DU145 cells, trypan blue exclusion count; assay type: cell-based, human; details: for reduction in the cell numbers: 1 μM, 4 days, vs vehicle (absolute ethanol) control; for effect on cell growth: 4-day exposure, vs vehicle control
Procedure: FIGS. 2A-2D are graphs summarizing data on effects of antiestrogens and estrogens on cell growth of DU145 cells. Cells (5×10^3 cells per well) were plated in triplicate wells onto a 24-well plate. After 24 hours for cell attachment, cells were treated for 4 days with antiestrogens [(A) ICI and (B) 4OH-TAM] or estrogens [(C) 17β-estradiol and (D) DES] at various concentrations as indicated. Cells treated with vehicle (absolute ethanol) were used as control. The number of viable cells at the end of 4 days of treatment was determined by the trypan blue exclusion method. Three individual experiments were performed. (Columns, means; bars, S.D.; n=9; *, p<0.001 compared to control (shaded column).
(§1) Cells were seeded at a density of 5×10^3 per ml into 24-well plates (Falcon, Becton Dickinson Labware, Lincoln Park, N.J.) in a final volume of 1 ml culture medium with 5% charcoal-stripped FBS. Twenty-four hours following seeding, triplicate wells of cells were treated in with 1 μM, 10 μM and 100 μM of estradiol-17β (E2), diethylstilbestrol (DES), 4′-hydroxytamoxifen (4OH-TAM) or ICI 182,780 (ICI). E2, DES, and 4OH-TAM were purchased from Sigma Co. (St. Louis, Mo.) and ICI was a gift from Zeneca Pharmaceuticals (Macclesfield, United Kingdom). Estrogens and antiestrogens were dissolved in absolute ethanol (Sigma Co., St. Louis, Mo.) and added to the media daily. Cell cultures not treated with estrogenic compounds received absolute ethanol as a vehicle control. Total additive ethanol concentrations never exceeded 0.2% throughout the culture period. The cells were re-fed with freshly prepared medium every other day. At the end of a 4-day treatment period, cells in each well were trypsinized and cell count determined by direct counting using the Trypan blue exclusion method. All treatment experiments were repeated at least three times to generate statistically relevant data.

recombinant ERβ protein = assay: Competitive inhibition ELISA of GC-17 antibody; assay type: binding, human; details: peptide pre-incubated with GC-17 (1:6000); ERβC 4 mg-4 μg/ml, ERβN 4 mg/ml
Procedure: FIG. 5 is a graphic representation of the results of a competitive ELISA assay and illustrates the concentration-dependent competition of the immunizing peptide (ERβC) with a GC-17 antibody. […] The GC-17 antibodies, bound to recombinant ER-β protein on ELISA plates, were recognized by alkaline phosphatase conjugated anti-rabbit IgG antibodies. The whole complexes were visualized by incubation with p-nitrophenyl phosphate. The optical density at 405 nm was measured. The entire assay was done 4 times. The columns represent the standard deviation. w/o=GC-17 preincubated without peptide antigen.
The wells of an ELISA plate, PRO-BIND™ (Becton-Dickenson Labware, Franklin, N.J.) were coated with a recombinant protein composed of the entire ERβ sequence (PanVera, Madison, Wis.) at a concentration of 5 μg/ml. The GC17 antibody (1:6000) was then pre-incubated with the immunizing peptide at concentrations ranging from 4 mg-4 μg/ml at room temperature for 30 minutes. In addition, 4 mg of a control peptide encompassing sequences in the N-terminal region of ER-β (Research Genetics) was preincubated with the GC 17 antibody (1:6000) at room temperature for 1 hour. […] Results were quantified by optical density using the Microplate reader 550 (Bio-Rad, Richmond, Calif.). […]

ERβ = assay: Competitive immunohistochemistry with GC-17 antibody; assay type: cell-based, human; details: sections of DU145 and LNCaP cells, 400 μg/ml or 40 μg/ml peptide
Source text: These cells were used to compliment and confirm that the GC-17 antibody reagent specifically detected ERβ but not ERα by immunohistochemical staining. Using the GC-17 antibody and the anti-ERα antibody (NCL-ER-6F11, Novacastra, Newcastle, UK) at the same dilutions as for tissue sections (see below), we carried out immunohistochemical studies on 10% formalin-fixed cytospins of DU145 and LNCaP cells that had been routinely processed, embedded in paraffin, sectioned at 5 μm and mounted on SuperFrost Plus™ slides (VWF Scientific, West Chester, Pa.).
Peptide competition studies were performed at the immunohistochemical level that approximated the conditions used in the ELISA assays described above. GC-17 antibody, at a dilution of 1:6000, was incubated with the immunizing ERβ peptide at concentrations of 400 μg and 40 μg at room temperature for 1 hour. In addition, competitive studies were conducted using ERα recombinant peptide (400 and 40 μg, Affinity Bioreagents Inc., Golden, Colo.) on DU145 cells. Incubation conditions and time were identical to those used for the ERβ peptide competition studies. Deparaffinized sections of DU145 and LNCaP cells and human prostate tissue were then incubated with these mixtures at room temperature for 1 hour. […]

PC-3 cells = assay: Cell growth of PC-3 cells, trypan blue exclusion count; assay type: cell-based, human
Procedure: FIGS. 3A-3D are graphs summarizing data on effects of antiestrogens and estrogens on cell growth of PC-3 cells. Cell growth assay was described in […]. (A) ICI. (B) 4OH-TAM. (C) 17β-estradiol. (D) DES. Columns, means; bars, S.D.; n=9; * ,p<0.001; #, p<0.01; +, p<0.05; compared to control (shaded column).
as §1

DU145 = assay: Cell growth inhibition by Raloxifene and Resveratrol, DU145; assay type: cell-based, human
Source text: (§2) Raloxifene® and Resveratrol® may also be active tumor suppressing agents utilizing the ERβ pathways. […] Treatment protocols and dosages used were similar to those described above.

PC-3 M cells = assay: Cell growth inhibition by Raloxifene and Resveratrol, PC-3 M; assay type: cell-based, human
Source text: as §2

DU145 cells [2] = assay: cDNA expression array of DU145 cells treated with ICI 182,780; assay type: cell-based, human; details: DU145, 12 hours
Procedure: cDNA array technology was used to identify genes whose expression is modulated by ICI 182,780 in DU145 cells. The DU-145 cells were treated for 12 hours with ICI 182,780, and total RNA was then isolated from treated cells and untreated controls. Following poly-(A)-RNA selection of these two population of total RNA, and DNase I digestion to remove contaminating DNA, the poly (A)-RNA pools were reversed-transcribed in the presence of P32 to produce radiolabeled cDNA probes. These radiolabeled cDNA probes were applied to an Atlas™ cDNA Expression Array (600 gene array, Clontech Laboratories, Inc, Palo Alto, Calif.) using the vendor's recommended protocol.

DU145 cells [3] = assay: ICI-induced DU145 cell growth inhibition with ERβ antisense, sense or mismatch ODN; assay type: cell-based, human; details: ICI 1 μM, 4 days, no ODN
Procedure: FIG. 4 is a graph summarizing data on reduction of ICI-induced inhibition of DU145 cell growth by ERβ antisense oligonucleotide (ODN). Cells were treated with ICI at 10^−6 M for 4 days in the presence of 2.5 μM antisense, sense or mismatch ODNs. Columns, means; bars, S.D.; n=16; *,p<0.001 compared to control without ODN treatment.
DU145 cells (5×10^3 cells per well) were plated in 24 well-plates (Falcon, Becton Dickinson Labware, Lincoln Park, N.J.). After allowing 24 hours for cell attachment, cell cultures were treated in triplicate with 1 μM ICI in the presence of 2.5 μM ERβ antisense, sense or mismatch ODNs for 4 days. The ERβ antisense ODN, an 18-mer, was designed to recognize the first translation start site on the ERβ mRNA and its immediate 5′flanking region (Table 2, below). The nucleotide sequence of sense ODN is complementary to those of ERβ antisense ODN (Table 2). Based on the sequence of ERβ antisense ODN, 5 nucleotides were scrambled to generate a mismatch ODN that retains the same GC ratio of the ERβ antisense ODN (Table 2). Both the sense and the mismatch ODNs served as controls for the antisense ODN. In all three ODNs, the first and the last 3 nucleotides were phosphorothioate-modified to increase their stability in cellulo. Number of viable cells in each well was determined by direct counting using the Trypan blue exclusion method after a 4-day treatment period. […]

`CC/C(=C(\c1ccccc1)c1ccc(OCCN(C)C)cc1)c1ccc(O)cc1` [4OH-TAM, 4′-hydroxytamoxifen] was tested, and the “reduction in the cell numbers” value (DU145 cells [1]) was “around 25%”.

“ERβC: immunizing peptide, C-terminus of ERβ (amino acids 449-465), 4-branch Multiple Antigenic Peptide (QQQSMRLANLLMLLSHV; also: 4-branch Multiple Antigenic Peptide)” was tested, and the “suppression of GC-17 binding to the recombinant protein” value (recombinant ERβ protein) was “successfully suppressed binding” and the “effect on nuclear staining by GC-17” value (ERβ) was “totally abolished nuclear staining”.

With `C[C@]12CC[C@@H]3c4ccc(O)cc4CC[C@H]3[C@@H]1CC[C@@H]2O` [E2, estradiol-17β] the “effect on cell growth” value (DU145 cells [1]) was “did not affect cell growth”, the “effect on cell growth” value (PC-3 cells; 1 μM, p<0.05) was “induced inhibition of cell growth” and the “effect on cell growth” value (PC-3 cells; 10 μM, p<0.01) was “induced inhibition of cell growth”.

In the case of `O=C(c1ccc(OCCN2CCCCC2)cc1)c1c(-c2ccc(O)cc2)sc2cc(O)ccc12` [Raloxifene], the efficacy compared (DU145) is reported as “markedly better than that of Resveratrol and ICI”, the “inhibition of cell growth” value (DU145) is reported as “marked inhibition of cell growth” and the efficacy compared (PC-3 M cells) is reported as “markedly better than that of Resveratrol and ICI”. For the same molecule, the “inhibition of cell growth” value (PC-3 M cells) was “marked inhibition of cell growth”.

For `Oc1ccc(C=Cc2cc(O)cc(O)c2)cc1` [Resveratrol], the “inhibition of cell growth” value (DU145) was “marked inhibition of cell growth” and the “inhibition of cell growth” value (PC-3 M cells) was “marked inhibition of cell growth”.

With `CC/C(=C(/CC)c1ccc(O)cc1)c1ccc(O)cc1` [DES, diethylstilbestrol] the “effect on cell growth” value (DU145 cells [1]) was “did not affect cell growth” and the “effect on cell growth” value (PC-3 cells; various concentrations) was “did not elicit statistically significant cell growth inhibition”.

For `C[C@]12CC[C@@H]3c4ccc(O)cc4C[C@@H](CCCCCCCCC[S+]([O-])CCCC(F)(F)C(F)(F)F)[C@H]3[C@@H]1CC[C@@H]2O` (stereo partly drawn) [ICI 182,780], the “Fold difference relative to control” value (DU145 cells [2]; gene: 5-hydroxytryptamine A1 receptor (E4h)) was “+6.6”, the “Fold difference relative to control” value (DU145 cells [2]; gene: BCL-2 related A1 protein (BFL-1)(C4H)) was “+9.6” and the “Fold difference relative to control” value (DU145 cells [2]; gene: Embryonic growth/differentiation factor (GDF-1)) was “+4.5”. For the same molecule, the “Fold difference relative to control” value (DU145 cells [2]; gene: IFN-α/β receptor) was “+2.7”, the “Fold difference relative to control” value (DU145 cells [2]; gene: Interleukin-12 alpha chain (IL-12)(F6K)) was “+10.6” and the “Fold difference relative to control” value (DU145 cells [2]; gene: RYK receptor-like tyrosine kinase (E2c)) was “+3.6”. The “Fold difference relative to control” value (DU145 cells [2]; gene: TL1309) was “+2.7”, the “reduction in the cell numbers” value (DU145 cells [1]) was 40% and the “effect on cell growth” value (DU145 cells [1]) was “dose-dependent inhibition of cell numbers”. The “reduction in cell number” value (DU145 cells [3]) was 40%.
